US20260193236A1 (Protego Biopharma, Inc., priority 2022, published 2026)

system: IRE1-XBP1s (XBP1-RLuc splicing reporter in HEK293 T-REx cells); assay: IRE1-XBP1s activation assay (XBP1-RLuc splicing reporter, HEK293 T-REx cells, luminescence relative to thapsigargin); assay type: cell-based; conditions: 18 h, compound 10 μM, HEK293 T-REx XBP1-RLuc reporter cells, relative to thapsigargin (Tg) 500 nM, read-out: Activity (IRE1-XBP1s activation, luminescence as % signal relative to thapsigargin, % Tg)
Method: IRE1-XBP1s activation Assay: HEK293 T-REx cells stably expressing the XBP1-RLuc splicing reporter were treated with an IRE1-XBP1s activator provided herein (10 μM) in the presence or absence of the IRE1 active site inhibitor 4μ8C (32 μM) for 18 h. Luminescence was shown as the percentage signal relative to thapsigargin (Tg) (500 nM, 18 h).

Structure (SMILES) | activation at 10 µM
Cc1ccc(OCCN(C)C(=O)Cn2cc(NC(=O)CCNc3ccc4c(n3)OCO4)cn2)cc1 [Compound 286, 3-([1,3]dioxolo[4,5-b]pyridin-5-ylamino)-N-(1-(2-(methyl (2-(p-tolyloxy)ethyl)amino)-2-oxoethyl)-1H-pyrazol-4-yl)propanamide] | > 50%
Cc1ccc(OCCN(C)C(=O)Cn2cc(NC(=O)[C@H](C)CNc3ccc(F)nc3C)cn2)cc1 [Compound 170] | 30 to 50%
Cc1ccc(OCCN(C)C(=O)Cn2cc(NC(=O)CCNc3ccnc(Cl)c3)cn2)cc1 [Compound 149] | > 50%
[2H]C([2H])([2H])c1ccc(OCCN(C)C(=O)Cn2cc(NC(=O)CCNc3ccnc(F)n3)cn2)cc1 [Compound 222] | > 50%
Cc1ccc(OCCN(C)C(=O)Cn2cc(NC(=O)CNC(=O)c3ncc(F)cn3)cn2)cc1 [Compound 249] | < 30%
Cc1ccc(OCCN(C)C(=O)Cn2cc(NC(=O)CCOc3cccnc3N)cn2)cc1 [Compound 233] | > 50%
Cc1ccc(OCCN(C)C(=O)Cn2cc(NC(=O)CCNc3c(F)cncc3C(C)C)cn2)cc1 [Compound 231] | > 50%
Cc1ccc(OCCN(C)C(=O)Cn2cc(NC(=O)CCOc3ccc(Cl)cc3F)cn2)cc1 [Compound 48] | < 30%
[2H]C([2H])([2H])c1ccc(OCCN(C)C(=O)Cn2cc(NC(=O)CCOc3ccc(C)cc3F)cn2)cc1 [Compound 91] | 30 to 50%
CN(CCOc1cc(C(F)F)on1)C(=O)Cn1cc(NC(=O)CCNc2nccc(F)n2)cn1 [Compound 271] | < 30%
Cc1ccc(OCCN(C)C(=O)Cn2cc(NC(=O)CCOC3CCCCC3(C)C)cn2)cc1 (centres unmarked) [Compound 4] | < 30%
Cc1ccc(OCCN(C)C(=O)Cn2cc(NC(=O)CCNc3ccncc3F)cn2)cc1 [Compound 192] | > 50%
Cc1ccc(OCCN(C)C(=O)Cn2cc(NC(=O)CCN(C)c3ccccc3)cn2)cc1 [Compound 21] | < 30%
COc1ccc(OCCN(C)C(=O)Cn2cc(NC(=O)CCNc3ccnc(C)c3)cn2)cc1 [Compound 166] | < 30%
COc1cc(F)ccc1OCCN(C)C(=O)Cn1cc(NC(=O)CCNc2ncccn2)cn1 [Compound 282, N-(1-(2-((2-(4-fluoro-2-methoxyphenoxy)ethyl)(methyl)amino)-2-oxoethyl)-1H-pyrazol-4-yl)-3-(pyrimidin-2-ylamino)propanamide] | < 30%
C#CCCC1(CCC(=O)Nc2ncccc2OCCC(=O)Nc2cnn(CC(=O)N(C)CCOc3ccc(C)cc3)c2)N=N1 [Compound 296, 3-(3-but-3-ynyldiazirin-3-yl)-N-[3-[3-[[1-[2-[methyl-[2-(4-methylphenoxy)ethyl]amino]-2-oxo-ethyl]pyrazol-4-yl]amino]-3-oxo-propoxy]-2-pyridyl]propanamide] | < 30%
Cc1ccc(OCCC(=O)Nc2cnn(CC(=O)N(C)CCOc3ccc(F)c(F)c3)c2)c(F)c1 [Compound 70] | < 30%
Cc1ccc(OCCN(C)C(=O)Cn2cc(NC(=O)CCNc3ccc(C#N)nc3C)cn2)cc1 [Compound 176] | < 30%
COc1cccc(NCCC(=O)Nc2cnn(CC(=O)N(C)CCOc3ccc(C)cc3)c2)n1 [Compound 188] | < 30%
CN(CCOc1ccc(C(F)(F)F)cn1)C(=O)Cn1cc(NC(=O)CCNc2c(F)cncc2Cl)cn1 [Compound 213] | > 50%
Cc1ccc(OCCN(C)C(=O)Cn2cc(NC(=O)CCOc3ccnc(N)n3)cn2)cc1 [Compound 99] | > 50%
Cc1ccc(OCCN(C)C(=O)Cn2cc(NC(=O)CCNc3cnc(F)cc3C)cn2)cc1 [Compound 179] | > 50%
Cc1ccc(OCCN(C)C(=O)Cn2cc(NC(=O)CCNc3ccccc3)cn2)cc1 [Compound 27] | > 50%
CCc1ccc(OCCN(C)C(=O)Cn2cc(NC(=O)CCOc3ccccc3)cn2)cc1 [Compound 26] | > 50%
CN(CCOc1ccc(C(F)(F)F)cc1)C(=O)Cn1cc(NC(=O)CCOc2ccccc2F)cn1 [Compound 40] | > 50%
Cc1ccc(OCCC(=O)Nc2cnn(CC(=O)N(C)CCOc3ncc(F)cc3F)c2)c(F)c1 [Compound 80] | < 30%
CN(CCOc1ccc(C#N)cc1)C(=O)Cn1cc(NC(=O)CCOc2ccccc2)cn1 [Compound 25] | < 30%

Structure (SMILES) | activation at 10 µM
Cc1ccc(OCCC(=O)Nc2cnn(CC(=O)N(C)CCOc3ccc(C)c(Cl)c3)c2)c(F)c1 [Compound 76] | < 30%
Cc1ccc(OCCN(C)C(=O)Cn2cc(NC(=O)CCNc3c(F)cnc(C)c3C3CC3)cn2)cc1 [Compound 214] | > 50%
Cc1nc(F)ccc1NCCC(=O)Nc1cnn(CC(=O)N(C)CCOc2cnn(C)c2)c1 [Compound 238, 3-[(6-fluoro-2-methyl-3-pyridyl)amino]-N-[1-[2-[methyl-[2-(1-methylpyrazol-4-yl)oxyethyl]amino]-2-oxo-ethyl]pyrazol-4-yl]propanamide] | < 30%
Cc1ccc(OCCN(C)C(=O)Cn2cc(NC(=O)CCOc3cccc(N)n3)cn2)cc1 [Compound 103] | > 50%
Cc1ccc(OCCN(C)C(=O)Cn2cc(NC(=O)CCNc3ccnc4nccn34)cn2)cc1 [Compound 227] | < 30%
Cc1ccc(OCCN(C)C(=O)Cn2cc(NC(=O)CCNc3ncc(C#N)cn3)cn2)cc1 [Compound 125] | < 30%
Cc1ccc2sc(OCCN(C)C(=O)Cn3cc(NC(=O)CCNc4ccc(F)nc4C)cn3)nc2c1 [Compound 246] | < 30%
Cc1ccc(OCCN(C)C(=O)Cn2cc(NC(=O)CCNc3ncc(C)cc3C)cn2)cc1 [Compound 195] | < 30%
Cc1ccc(OCCN(C)C(=O)Cn2cc(NC(=O)CCOc3c(F)cccc3F)cn2)cc1 [Compound 56] | > 50%
Cc1ccc(OCCN(C)C(=O)Cn2cc(NC(=O)CCNc3cnc4c(c3)OCO4)cn2)cc1 [Compound 295, 3-([1, 3]dioxolo[4,5-b]pyridin-6-ylamino)-N-(1-(2-(methyl (2-(p-tolyloxy)ethyl)amino)-2-oxoethyl)-1H-pyrazol-4-yl)propanamide] | > 50%
CN(CCOc1cccnc1)C(=O)Cn1cc(NC(=O)CCOc2ccccc2F)cn1 [Compound 41] | < 30%
COC(=O)Nc1cccc(NCCC(=O)Nc2cnn(CC(=O)N(C)CCOc3ccc(C)cc3)c2)n1 [Compound 253] | < 30%
Cc1ccc(OC[C@@H](C)N(C)C(=O)Cn2cc(NC(=O)CCOc3c(F)cccc3F)cn2)cc1 [Compound 82] | > 50%
Cc1ccc(OCCN(C)C(=O)Cn2cc(NC(=O)CCN(C(=O)OC(C)(C)C)c3ccccc3)cn2)cc1 [Compound 23] | < 30%
Cc1ccc(OCCN(C)C(=O)Cn2cc(NC(=O)CCOc3ccncc3)cn2)cc1 [Compound 9] | > 50%
Cc1ccc(OCCN(C)C(=O)Cn2cc(NC(=O)CCNc3cccnc3C(F)(F)F)cn2)cc1 [Compound 186] | > 50%
Cc1ccc(OCCN(C)C(=O)Cn2cc(NC(=O)CCOC3CCC(C)(C)CC3)cn2)cc1 [Compound 3, 3-((4,4-dimethylcyclohexyl)oxy)-N-(1-(2-(methyl(2-(p-tolyloxy)ethyl)amino)-2-oxoethyl)-1H-pyrazol-4-yl)propanamide] | > 50%
Cc1ccc(OCC(C)N(C)C(=O)Cn2cc(NC(=O)CCOc3ccccc3F)cn2)cc1 (centres unmarked) [Compound 53] | > 50%
Cc1ccc(OCCN(C)C(=O)Cn2cc(NC(=O)[C@@H](C)CNc3ccnc(F)n3)cn2)cc1 [Compound 224] | > 50%
CCOc1cc(NCCC(=O)Nc2cnn(CC(=O)N(C)CCOc3ccc(C)cc3)c2)ccn1 [Compound 191] | < 30%
Cc1ccc(OCCN(C)C(=O)Cn2cc(NC(=O)CCOc3ccc(F)cc3C(F)(F)F)cn2)cc1 [Compound 60] | < 30%
COC(=O)Nc1cccc(OCCC(=O)Nc2cnn(CC(=O)N(C)CCOc3ccc(C)cc3)c2)n1 [Compound 261, methyl (6-(3-((1-(2-(methyl(2-(p-tolyloxy)ethyl)amino)-2-oxoethyl)-1H-pyrazol-4-yl)amino)-3-oxopropoxy)pyridin-2-yl)carbamate] | 30 to 50%
Cc1ccc(OCCN(C)C(=O)Cn2cc(NC(=O)CCOc3ccncc3N)cn2)cc1 [Compound 112] | 30 to 50%
Cc1ccc(OCCN(C)C(=O)Cn2cc(NC(=O)CCOc3cccnc3NS(C)(=O)=O)cn2)cc1 [Compound 273, N-(1-(2-(methyl(2-(p-tolyloxy)ethyl)amino)-2-oxoethyl)-1H-pyrazol-4-yl)-3-((2-(methylsulfonamido)pyridin-3-yl)oxy)propanamide] | < 30%
Cc1ccc(OCCN(C)C(=O)Cn2cc(NC(=O)CCNc3ccncc3)cn2)cc1 [Compound 155] | < 30%
Cc1ccc(OCCN(C)C(=O)Cn2cc(NC(=O)/C=C/Oc3cccnc3N)cn2)cc1 [Compound 237] | < 30%
Cc1ccc(OCCN(C)C(=O)Cn2cc(NC(=O)C(C)COc3ccccc3)cn2)cc1 (centres unmarked) [Compound 46, 2-methyl-N-(1-(2-(methyl(2-(p-tolyloxy)ethyl)amino)-2-oxoethyl)-1H-pyrazol-4-yl)-3-phenoxypropanamide] | > 50%

same assay, conditions: 18 h, read-out: Activity (IRE1-XBP1s activation, luminescence as % signal relative to thapsigargin, % Tg)

Structure (SMILES) | activation at 10 µM
Cc1ccc(OCCN(C)C(=O)Cn2cc(NC(=O)CCOc3ccc(C#N)cc3)cn2)cc1 [Compound 20, 3-(4-cyanophenoxy)-N-(1-(2-(methyl(2-(p-tolyloxy)ethyl)amino)-2-oxoethyl)-1H-pyrazol-4-yl)propanamide] | < 30%
Cc1ccc(OCCN(C)C(=O)Cn2cc(NC(=O)C(C)(C)C(=O)Nc3ncc(F)cn3)cn2)cc1 [Compound 258, N1-(5-fluoropyrimidin-2-yl)-2,2-dimethyl-N3-(1-(2-(methyl(2-(p-tolyloxy)ethyl)amino)-2-oxoethyl)-1H-pyrazol-4-yl)malonamide] | < 30%
